Reference: patent publication US5519012A, “Inclusion complexes of optically active 1,4-dihydropyridines with methyl-β-cyclodextrin” (LEK, tovarna farmacevtskih in kemicnih izdelkov, d.d., …, priority 1992, dated 1996)
Converted amounts (≈) assume the structure as drawn. Where a name gives a salt, the structure may show the parent alone.

Experiments:
physchem = conditions: water
[1] = Water solubility of racemic and optically active dihydropyridines, free or bound in inclusion complexes (room temperature, filtrates of saturated solutions, liquid chromatography); conditions: for Water solubility, complex. HE-β-CD: bound in inclusion complex with HE-β-CD (2-hydroxyethyl-cyclodextrin); for Water solubility, complex. HP-β-CD: bound in inclusion complex with HP-β-CD (2-hydroxypropyl-cyclodextrin); for Water solubility, complex. Me-β-CD: bound in inclusion complex with Me-β-CD; for Water solubility, complex. β-CD: bound in inclusion complex with β-CD; for Water solubility of particular enantiomers (in words): (-) compared with (+) nicardipine.HCl; for Water solubility, uncomplex.: free form
[2] = one enantiomer versus the other; literature; cited from earlier work
[3] = by means of DIMEB (heptakis-(2,6-di-O-dimethyl)-β-cyclodextrin); cited from earlier work

Row | solubility (physchem) | Water solubility, complex. HE-β-CD ([1]; room temperature) | Water solubility, complex. HP-β-CD ([1]; room temperature) | Water solubility, complex. Me-β-CD ([1]; room temperature) | Water solubility, complex. β-CD ([1]; room temperature) | Compound | further results
1 | 0.0006 mg/mL (≈ 1.66 µM) |  |  |  |  | CCOC(=O)C1=C(C)NC(C)=C(C(=O)OC)C1c1cccc([N+](=O)[O-])c1 (racemic) [(±)nitrendipine, 3-ethyl-5-methyl-1,4-dihydro-2,6-dimethyl-4-(3-nitrophenyl)-3,5-pyridinedicarboxylate] | 
2 | 1.5 mg/mL | 53.8 mg/mL | 97.9 mg/mL | 145.8 mg/mL | 54.8 mg/mL | COC(=O)C1=C(C)NC(C)=C(C(=O)OCCN(C)Cc2ccccc2)C1c1cccc([N+](=O)[O-])c1 (racemic) [(±)nicardipine.HCl, 2-(N-benzyl-N-methyl-amino)-ethylmethyl-2,6-dimethyl-4-(3-nitrophenyl) -1,4-dihydropyridine-3,5-dicarboxylatehydrochloride] | 
3 | 0.0008 mg/mL (≈ 2.08 µM) |  |  |  |  | CCOC(=O)C1=C(C)NC(C)=C(C(=O)OC)C1c1cccc(Cl)c1Cl (centres unmarked) [felodipine, ethylmethyl-1,4-dihydro-2,6-dimethyl-4-(2,3-dichlorophenyl)-3,5-pyridinedicarboxylate] | 
4 |  | 52.7 mg/mL | 59.9 mg/mL | 133.1 mg/mL | 15.8 mg/mL | COC(=O)C1=C(C)NC(C)=C(C(=O)OCCN(C)Cc2ccccc2)C1c1cccc([N+](=O)[O-])c1 (single isomer, unassigned; (+)) [(+)nicardipine.HCl] | Water solubility of particular enantiomers (in words) [1]: different water solubilities; Water solubility, uncomplex. ([1]; room temperature): 0.4 mg/mL
5 |  |  |  |  |  | COC(=O)C1=C(C)NC(C)=C(C(=O)OCCN(C)Cc2ccccc2)C1c1cccc([N+](=O)[O-])c1 (single isomer, unassigned; (+)) [(+) nicardipine] | activity relative to the other enantiomer [2]: three times higher activity
6 |  | 54.2 mg/mL | 68.0 mg/mL | 127.4 mg/mL | 15.6 mg/mL | COC(=O)C1=C(C)NC(C)=C(C(=O)OCCN(C)Cc2ccccc2)C1c1cccc([N+](=O)[O-])c1 (single isomer, unassigned; (-)) [(-)nicardipine.HCl] | Water solubility of particular enantiomers (in words) [1]: different water solubilities; Water solubility, uncomplex. ([1]; room temperature): 0.1 mg/mL; Water solubility, complex. HP-β-CD (molar ratio 1:2) ([1]; molar ratio of the complex (-)NC.HCl:HP CD amounts to 1:2, room temperature): 130.0 mg/mL
7 |  |  |  |  |  | CCOC(=O)C1=C(COCCN)NC(C)=C(C(=O)OC)[C@H]1c1ccccc1Cl (single isomer, unassigned) [R-(-) isomer of amlodipine] | activity relative to the other enantiomer [2]: substantially higher activity
8 |  |  |  |  |  | COc1ccc2c(c1)c(CC(=O)O)c(C)n2C(=O)c1ccc(Cl)cc1 [indometacin] | enhancement of water solubility [3]: 20.4 times

Row | Compound | solubility (physchem) | Water solubility, complex. HE-β-CD ([1]; room temperature) | Water solubility, complex. HP-β-CD ([1]; room temperature) | Water solubility, complex. Me-β-CD ([1]; room temperature) | Water solubility, complex. β-CD ([1]; room temperature) | further results
9 | CCOC(=O)C1=C(COCCN)NC(C)=C(C(=O)OC)C1c1ccccc1Cl (centres unmarked) [amlodipine besylate, 3-ethyl-5-methyl-2-[(2-aminoethoxy)methyl]-4-(2-chlorophenyl) 1,4-dihydro-6-methyl-3,5-pyridinedicarboxylate-monobenzensulfonate] | 1.1 mg/mL | 4.5 mg/mL | 17.0 mg/mL | 25.0 mg/mL | 10.0 mg/mL | Water solubility (in words) ([1]; comparison in words, inclusion complexes with Me-β-CD): improved water solubility
